Data on 24 molecules can be found in patent US6495576B2, “Aminal diones as potassium channel openers” (Abbott Laboratories, priority 2001, dated 2002).

The structures appear in SMILES notation. Where two headings read alike, the source gives them in different places.

The assay relates to Landrace pig bladder strips. In words: Functional potassium channel opening activity in isolated, field-stimulated bladder strips. The following applies: for Index: ED50 for P1075 divided by ED50 for test agonist in a given tissue, averaged; for EC50: amount causing 50% of the agent's maximal response, field stimulation 0.05 Hz, 0.5 ms, 20 volts, read-out: ED50 (the source's name); for Efficacy (%P1075) / Emax: maximal efficacy on stimulated twitch, relative to P1075. The protocol:
Compound were evaluated for functional potassium channel opening activity using tissue strips obtained from Landrace pig bladders.
Landrace pig bladders were obtained from female Landrace pigs of 9-30 kg. Landrace pig were euthanized with an intraperitoneal injection of pentobarbital solution, Somlethal ®, J. A. Webster Inc. Sterling Mass. The entire bladder was removed and immediately placed into Krebs Ringer bicarbonate solution (composition, mM: NaCl, 120; NaHCO3, 20; dextrose, 11; KCl, 4.7; CaCl2, 2.5; MgSO4, 1.5; KH2PO4, 1.2; K2EDTA, 0.01, equilibrated with 5% CO2/95% O2 pH 7.4 at 37° C.). Propranolol (0.004 mM) was included in all of the assays to block β-adrenoceptors. The trigonal and dome portions were discarded. Strips 3-5 mm wide and 20 mm long were prepared from the remaining tissue cut in a circular fashion. The mucosal layer was removed. One end was fixed to a stationary glass rod and the other to a Grass FT03 transducer at a basal preload of 1.0 gram. Two parallel platinum electrodes were included in the stationary glass rod to provide field stimulation of 0.05 Hz, 0.5 milli-seconds at 20 volts. This low frequency stimulation produced a stable twitch response of 100-500 centigrams. Tissues were allowed to equilibrate for at least 60 minutes and primed with 80 mM KCl. A control concentration response curve (cumulative) was generated for each tissue using the potassium channel opener P1075 as the control agonist. […] After a 60 minute rinsing period, a concentration response curve (cumulative) was generated for the test agonist in the same fashion as that used for control agonist P1075. The maximal efficacy of each compound (expressed as % relative to P1075) is reported. The amount of agent necessary to cause 50% of the agent's maximal response (ED50) was calculated using “ALLFIT” (DeLean et al., Am. J. Physiol., 235, E97 (1980)), hereby incorporated by reference. Agonist potencies were also expressed as an index relative to P1075. The index was calculated by dividing the ED50 for P1075 by the ED50 for the test agonist in a given tissue. Each tissue was used for only one test agonist, and the indices obtained from each tissue were averaged to provide an average index of potency.

Regarding `CC(C)(C)C(NC(=O)c1cc(F)cc(F)c1)Nc1c(Nc2cccnc2)c(=O)c1=O` (single isomer, unassigned; (+)) [Example 49, (+)N-(1-{[3.4-Dioxo-2-(3-pyridinylamino)-1-cyclobuten-1-yl]amino}-2,2-dimethylpropyl)-3,5-difluorobenzamide], the Index is 0.071, the EC50 was found to be 1.2 µM and the “Efficacy (%P1075)” value is recorded as 100 %P1075.
Consider `CC(C)(C)C(NC(=O)c1cccc(Cl)c1)Nc1c(Nc2cccnc2)c(=O)c1=O` (single isomer, unassigned; (+)) [Example 56, (+) 3-Chloro-N-(1-{[3.4-dioxo-2-(3-pyridinylamino)-1-cyclobuten-1-yl]amino}-2,2-dimethylpropyl)benzamide], for which the Index is recorded as 0.028, the EC50 is 2.2 µM and the “Efficacy (%P1075)” value was found to be 94 %P1075.
Regarding `CC(C)(C)C(NC(=O)c1cc(F)cc(F)c1)Nc1c(Nc2cccnc2)c(=O)c1=O` (single isomer, unassigned; (-)) [Example 50, (−)N-(1-{[3,4-Dioxo-2-(3-pyridinylamino)-1-cyclobuten-1-yl]amino}-2,2-dimethylpropyl)-3,5-difluorobenzamide], the Index amounted to 0.14 and the EC50 was 6.8 µM. In addition, the maximal response (Emax) (in general, the size of the effect at its maximum, as opposed to the concentration needed) (Sus scrofa) is 79%.
In the same order, the values of `CC(C)(C)C(NC(=O)c1cccc(Cl)c1)Nc1c(Nc2cccnc2)c(=O)c1=O` (single isomer, unassigned; (-)) [Example 57, (−) 3-Chloro-N-(1-{[3,4-dioxo-2-(3-pyridinylamino)-1-cyclobuten-1-yl]amino}-2,2-dimethylpropyl)benzamide] are 0.015, 4 µM and 81%.
On to `CC(C)(C)C(NC(=O)c1ccc(I)cc1)Nc1c(Nc2cccnc2)c(=O)c1=O` (stereo not shown) [Example 3, N-(1-{[3,4-Dioxo-2-(3-pyridinylamino)-1-cyclobuten-1-yl]amino}-2,2-dimethylpropyl)-4-iodobenzamide], for which the Index stood at 0.062.
`CC(C)(C)C(NC(=O)c1cccc(Cl)c1)Nc1c(Nc2cccnc2)c(=O)c1=O` (stereo not shown) [Example 5, 3-chloro-N-(1-{[3,4-Dioxo-2-(3-pyridinylamino)-1-cyclobuten-1-yl]amino}-2,2-dimethylpropyl)benzamide] had an Index of 0.059.
Regarding `Cc1cccc(C(=O)NC(Nc2c(Nc3cccnc3)c(=O)c2=O)C(C)(C)C)c1` (stereo not shown) [Example 6, N-(1-{[3,4-Dioxo-2-(3-pyridinylamino)-1-cyclobuten-1-yl]amino}-2,2-dimethylpropyl)-3-methylbenzamide], the Index was 0.067.
As for `CC(C)(C)C(NC(=O)c1cccc(F)c1)Nc1c(Nc2cccnc2)c(=O)c1=O` (stereo not shown) [Example 7, N-(1-{[3,4-Dioxo-2-(3-pyridinylamino)-1-cyclobuten-1-yl]amino}-2,2-dimethylpropyl)-3-fluorobenzamide], the Index was found to be 0.025.
Consider `CC(C)(C)C(NC(=O)c1cccc(I)c1)Nc1c(Nc2cccnc2)c(=O)c1=O` (stereo not shown) [Example 8, N-(1-{[3,4-Dioxo-2-(3-pyridinylamino)-1-cyclobuten-1-yl]amino}-2,2-dimethylpropyl)-3-iodobenzamide], for which the Index is reported as 0.047.
For `CC(C)(C)C(NC(=O)c1cc(Cl)cc(Cl)c1)Nc1c(Nc2cccnc2)c(=O)c1=O` (stereo not shown) [Example 12, 3,5-Dichloro-N-(1-{[3,4-dioxo-2-(3-pyridinylamino)-1-cyclobuten-1-yl]amino}-2,2-dimethylpropyl)benzamide], the Index stood at 0.12.
In turn, `COc1cc(OC)cc(C(=O)NC(Nc2c(Nc3cccnc3)c(=O)c2=O)C(C)(C)C)c1` (stereo not shown) [Example 13, N-(1-{[3,4-dioxo-2-(3-pyridinylamino)-1-cyclobuten-1-yl]amino}-2,2-dimethylpropyl)-3,5-dimethoxybenzamide] yielded an Index of 0.57.
On to `CC(C)(C)C(NC(=O)c1cc(F)cc(F)c1)Nc1c(Nc2cccnc2)c(=O)c1=O` (stereo not shown) [Example 16, N-(1-{[3,4-Dioxo-2-(3-pyridinylamino)-1-cyclobuten-1-yl]amino}-2,2-dimethylpropyl)-3,5-difluorobenzamide], for which the Index was determined as 0.046.
In turn, `CCC(CC)C(NC(=O)c1ccc(Cl)cc1)Nc1c(Nc2cccnc2)c(=O)c1=O` (stereo not shown) [Example 21, 4-Chloro-N-(1-{[3,4-dioxo-2-(3-pyridinylamino)-1-cyclobuten-1-yl]amino}-2-ethylbutyl)benzamide] registered an Index of 0.092.
`O=C(NC(Nc1c(Nc2cccnc2)c(=O)c1=O)C(F)(F)C(F)(F)F)c1cccc(Cl)c1` (stereo not shown) [Example 26, 3-Chloro-N-(1-{[3,4-dioxo-2-(3-pyridinylamino)-1-cyclobuten-1-yl]amino}−2,2,3,3,3-pentafluoropropyl)benzamide] came in with an Index of 0.64.
As to `CC(C)(C)C(NC(=O)c1ccc(Cl)cc1)Nc1c(Nc2cccnc2Cl)c(=O)c1=O` (stereo not shown) [Example 29, 4-Chloro-N-[1-({2-[(2-chloro-3-pyridinyl)amino]-3,4-dioxo-1-cyclobuten-1-yl}amino)-2,2-dimethylpropyl]benzamide], the Index was determined as 0.028.
For `CC(C)(Cc1ccccc1)C(NC(=O)c1ccc(Cl)cc1)Nc1c(Nc2cccnc2Cl)c(=O)c1=O` (stereo not shown) [Example 31, 4-Chloro-N-[1-({2-[(2-chloro-3-pyridinyl)amino]-3,4-dioxo-1-cyclobuten-1-yl}amino)-2,2-dimethyl-32-phenylpropyl]benzamide], the Index worked out at 0.039, the EC50 turned out to be 2.9 µM and the “Efficacy (%P1075)” value worked out at 76 %P1075.
The molecule `Cc1cccc(C(=O)NC(Nc2c(Nc3cccnc3Cl)c(=O)c2=O)C(C)(C)C)c1` (stereo not shown) [Example 32, N-[1-({2-[(2-Chloro-3-pyridinyl)amino]-3,4-dioxo-1-cyclobuten-1-yl}amino)-2,2-dimethylpropyl]-3-methylbenzamide] registered an Index of 0.076.
The same measure, in the same setting: the same measure for `CC(C)(C)C(NC(=O)CCc1ccccc1)Nc1c(Nc2cccnc2)c(=O)c1=O` (stereo not shown) [Example 36, N-(1-{[3,4-Dioxo-2-(3-pyridinylamino)-1-cyclobuten-1-yl]amino}-2,2-dimethylpropyl)-3-phenylpropionamide]: 0.063.
`CC(Cl)(Cl)C(NC(=O)c1cc(F)cc(F)c1)Nc1c(Nc2cccnc2)c(=O)c1=O` (stereo not shown) [Example 51, N-(2,2-Dichloro-1-{[3,4dioxo-2-(3-pyridinylamino)-1-cyclobuten-1-yl]amino}propyl)-3,5-difluorobenzamide] came in with an Index of 0.080. For the setting “Sus scrofa”, the EC50 turned out to be 1.4 µM and the Emax came to 96%.
Molecule `CC(C)(Cc1ccccc1)C(NC(=O)c1cc(F)cc(F)c1)Nc1c(Nc2cccnc2)c(=O)c1=O` (stereo not shown) [Example 55, N-(1-{[3,4-Dioxo-2-(3-pyridinylamino)-1-cyclobuten-1-yl]amino}-2,2-dimethyl-3-phenylpropyl)-3,5-difluorobenzamide] returned an Index of 0.053. For the same molecule, under “Sus scrofa”, the EC50 was 2.3 µM and the Emax is 75%.
In the same order, the values of `CC(C)(Cc1ccccc1)C(NC(=O)c1cccc(Cl)c1)Nc1c(Nc2cccnc2)c(=O)c1=O` (stereo not shown) [Example 59, 3-Chloro-N-(1-{[3,4-dioxo-2-(3-pyridinylamino)-1-cyclobuten-1-yl]amino}-2,2-dimethyl-3-phenylpropyl)benzamide] are 0.062, 1.7 µM and 57%.
As for `Cc1cccc(C(=O)NC(Nc2c(Nc3cccnc3Cl)c(=O)c2=O)C(C)(C)Cc2ccccc2)c1` (stereo not shown) [Example 61, N-[1-({2[(2-Chloropyiridin-3-yl)amino]-3,4-dioxo-1-cyclobuten-1-yl}amino)-2,2-dimethyl-3-phenylpropyl]-3-methylbenzamide], the Index was found to be 0.50, the EC50 is 0.47 µM and the “Efficacy (%P1075)” value is on record as 64 %P1075.
`CC(C)(C)CC(NC(=O)c1cccc(Cl)c1)Nc1c(Nc2cccnc2)c(=O)c1=O` (stereo not shown) [Example 64, 3-Chloro-N-(1-{[3,4-dioxo-2-(3 pyridinylamino)-1-cyclobuten-1-yl]amino}-3,3-dimethylbutyl)benzamide] returned an Index of 0.025. Besides, for the setting “Sus scrofa”, the EC50 came out at 4.2 µM and the Emax stood at 76%.
On to `CC(C)(C)C(NC(=O)c1cccc(Br)c1)Nc1c(Nc2cccnc2)c(=O)c1=O` (stereo not shown) [Example 66, 3-Bromo-N-(1-{[3,4-dioxo-2-(3-pyridinylamino)-1-cyclobuten-1-yl]amino}-2,2-dimethylpropyl)benzamide], for which the Index was found to be 0.040. For the setting “Sus scrofa”, the EC50 turned out to be 4.2 µM and the Emax was determined as 74%.
